Among the test systems are HL-60(TB) leukemia; MALME-3M melanoma; CAKI-1 renal; LOX IMVI melanoma; KM12 colon; HCC-2998 colon; K-562 leukemia; SK-MEL-5 melanoma; SK-MEL-2 melanoma; NCI-H23 lung.
What all share (experiment): inhibition of tumour cell growth, NCI panel, 48 h

Each structure is given as a SMILES string.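 Following 48 hours of exposure in 96-well plates, responses at five concentrations were used to interpolate endpoints linearly. TGI marks complete inhibition of growth.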 A value given as a limit tells only on which side of the number the result lay.

As for `COc1c(O)c(O)cc2c1-c1ccc(OC)c(=O)cc1C(NC(C)=O)CC2` (stereo not given), the TGI is 18 µM in the test with HL-60(TB) leukemia; more than 100 µM in the test with MALME-3M melanoma; 95.6 µM in the test on CAKI-1 renal; 20.6 µM in the test on LOX IMVI melanoma; 33 µM in the test on KM12 colon; 74.8 µM in the test on HCC-2998 colon. Besides, the TGI was determined as 19.2 µM with K-562 leukemia, 11.3 µM in the test on SK-MEL-5 melanoma, 50.6 µM with SK-MEL-2 melanoma and 34.2 µM with NCI-H23 lung.

As for `CC(O)CC(O)(C(F)(F)F)C(F)(F)F` (stereo not given), the TGI with HL-60(TB) leukemia, in the test on MALME-3M melanoma, with CAKI-1 renal, with LOX IMVI melanoma, in the test with KM12 colon and in the test with HCC-2998 colon was more than 10 µM each time. For the same compound, the TGI with K-562 leukemia, in the test with SK-MEL-5 melanoma, in the test with SK-MEL-2 melanoma and in the test with NCI-H23 lung was more than 10 µM each time.

In the case of `COC(=O)c1cc(C)ccc1CC(Cc1ccc(C)cc1)C(=O)OC` (stereo not given), the TGI was more than 29.1 µM in the test with HL-60(TB) leukemia; 95.5 µM with MALME-3M melanoma; more than 100 µM with CAKI-1 renal; more than 100 µM in the test on LOX IMVI melanoma; more than 100 µM in the test on KM12 colon; more than 100 µM in the test on HCC-2998 colon. Moreover, the TGI is more than 38.7 µM in the test on K-562 leukemia, 12.6 µM with SK-MEL-5 melanoma, more than 90.3 µM in the test on SK-MEL-2 melanoma and more than 100 µM in the test with NCI-H23 lung.

Consider `COc1cc(C=C2C(=O)NC(=S)NC2=O)cc(OC)c1OC`, for which the TGI in the test on HL-60(TB) leukemia, in the test on MALME-3M melanoma, with CAKI-1 renal, in the test with LOX IMVI melanoma, in the test with KM12 colon and with HCC-2998 colon was more than 100 µM each time. The TGI in the test with K-562 leukemia, in the test with SK-MEL-5 melanoma, with SK-MEL-2 melanoma and in the test with NCI-H23 lung was more than 100 µM throughout.

For the compound `Cc1cc2nc(-c3cc(C(C)(C)C)c(O)c(C(C)(C)C)c3)[nH]c2cc1C`, the TGI in the test with HL-60(TB) leukemia is more than 100 µM; with MALME-3M melanoma, more than 100 µM; with CAKI-1 renal, more than 26.2 µM; in the test with LOX IMVI melanoma it was 28.6 µM; with KM12 colon it was more than 28.8 µM; with HCC-2998 colon, more than 100 µM. Also, the TGI with K-562 leukemia is more than 43.1 µM; in the test on SK-MEL-5 melanoma, more than 100 µM; in the test on SK-MEL-2 melanoma, more than 100 µM; in the test with NCI-H23 lung, more than 100 µM.

For the compound `Cc1cc2c(nn1)-c1ccccc1C2=O`, the TGI with HL-60(TB) leukemia, with MALME-3M melanoma, with CAKI-1 renal, with LOX IMVI melanoma, in the test on KM12 colon and with HCC-2998 colon was more than 10 µM throughout. For the same compound, the TGI with K-562 leukemia, with SK-MEL-5 melanoma, in the test on SK-MEL-2 melanoma and in the test on NCI-H23 lung was more than 10 µM each time.

Consider `COC(=O)C1=C(C)NC(C)=C([N+](=O)[O-])C1c1cccc(N=O)c1` (stereo not given), for which the TGI in the test with HL-60(TB) leukemia is more than 100 µM; with MALME-3M melanoma, 25.2 µM; with CAKI-1 renal it was 20.6 µM; with LOX IMVI melanoma, 30 µM; in the test with KM12 colon, 26.4 µM; in the test with HCC-2998 colon, 34.8 µM. For the same compound, the TGI in the test with K-562 leukemia was more than 100 µM; with SK-MEL-5 melanoma it was 29.6 µM; in the test with SK-MEL-2 melanoma, 33.8 µM; with NCI-H23 lung it was 33.5 µM.

Take `Cc1cn([C@H]2C[C@](C)(CO)N(C)O2)c(=O)[nH]c1=O`: the TGI in the test on HL-60(TB) leukemia, in the test on MALME-3M melanoma, in the test on CAKI-1 renal, in the test with LOX IMVI melanoma, in the test on KM12 colon and with HCC-2998 colon was more than 100 µM in each case. The TGI with K-562 leukemia, in the test with SK-MEL-5 melanoma, in the test with SK-MEL-2 melanoma and with NCI-H23 lung was more than 100 µM each time.

Regarding `COC(=O)C1(Cc2ccc3c(c2)CCC3)Cc2ccccc2C1=O` (stereo not given), the TGI in the test on HL-60(TB) leukemia is 32.4 µM; with MALME-3M melanoma, more than 100 µM; in the test on CAKI-1 renal, more than 100 µM; in the test with LOX IMVI melanoma it was 28.5 µM; in the test on KM12 colon it was 20.3 µM; in the test with HCC-2998 colon it was more than 100 µM. Also, the TGI with K-562 leukemia was found to be 48.4 µM; in the test with SK-MEL-5 melanoma, 18.1 µM; in the test with SK-MEL-2 melanoma, 38.7 µM; in the test with NCI-H23 lung, 95.4 µM.

In the case of `CCN(CC)CCNc1ccc2ncn3c4cc(OC)c(OC)c(=O)c4c(O)c1c23`, the TGI with HL-60(TB) leukemia is 26.3 µM; in the test on MALME-3M melanoma, 36.8 µM; with CAKI-1 renal it was 28.9 µM; in the test on LOX IMVI melanoma, 2.74 µM; in the test on KM12 colon, 23.2 µM; with HCC-2998 colon, 23.2 µM. The TGI was determined as 50.7 µM in the test on K-562 leukemia, 29.8 µM with SK-MEL-5 melanoma, 42.7 µM in the test on SK-MEL-2 melanoma and 26.3 µM in the test on NCI-H23 lung.

Turning to `NS(=O)(=O)c1ccc(NC(NC(=O)C(C(F)(F)F)C(F)(F)F)(C(F)(F)F)C(F)(F)F)cc1`, the TGI in the test with HL-60(TB) leukemia, with MALME-3M melanoma, in the test on CAKI-1 renal, with LOX IMVI melanoma, with KM12 colon and with HCC-2998 colon was more than 100 µM throughout. For the same compound, the TGI with K-562 leukemia, with SK-MEL-5 melanoma, in the test on SK-MEL-2 melanoma and in the test with NCI-H23 lung was more than 100 µM throughout.

With `Cc1cc(/N=C/c2ccc(C#N)cc2)n(-c2ccccc2)n1`, the TGI in the test on HL-60(TB) leukemia is 76.6 µM; in the test on MALME-3M melanoma it was more than 100 µM; in the test with CAKI-1 renal it was more than 100 µM; in the test with LOX IMVI melanoma, more than 100 µM; in the test on KM12 colon, more than 100 µM; with HCC-2998 colon, more than 100 µM. In addition, the TGI with K-562 leukemia, with SK-MEL-5 melanoma, in the test with SK-MEL-2 melanoma and in the test on NCI-H23 lung was more than 100 µM throughout.

As for `O=C(c1ccccc1)N1C(=S)N=C(Nc2ccccc2)C1=Nc1ccccc1`, the TGI in the test on HL-60(TB) leukemia, with MALME-3M melanoma, with CAKI-1 renal, in the test with LOX IMVI melanoma, in the test on KM12 colon and with HCC-2998 colon was more than 100 µM each time. Moreover, the TGI with K-562 leukemia, in the test on SK-MEL-5 melanoma, with SK-MEL-2 melanoma and in the test with NCI-H23 lung was more than 100 µM each time.

Consider `N#CCCN(CCC#N)c1ccc(/C=C2\SC(=S)NC2=O)cc1Br`, for which the TGI was more than 100 µM in the test on HL-60(TB) leukemia; more than 100 µM in the test on MALME-3M melanoma; more than 100 µM in the test with CAKI-1 renal; 80.7 µM in the test with LOX IMVI melanoma; more than 100 µM in the test with KM12 colon; more than 100 µM in the test on HCC-2998 colon. Also, the TGI with K-562 leukemia, in the test with SK-MEL-5 melanoma, in the test with SK-MEL-2 melanoma and in the test on NCI-H23 lung was more than 100 µM throughout.

Regarding `CCOC(CN(C)C(=S)Nc1cccc2ccccc12)OCC`, the TGI with HL-60(TB) leukemia, with MALME-3M melanoma, with CAKI-1 renal, with LOX IMVI melanoma, in the test on KM12 colon and in the test on HCC-2998 colon was more than 10 µM in each case. The TGI with K-562 leukemia, with SK-MEL-5 melanoma, with SK-MEL-2 melanoma and in the test with NCI-H23 lung was more than 10 µM each time.

For the compound `C=C1C(=O)OC2/C=C(/C)C3(O)OC(C)(CC(OC(=O)C(C)C)C12)CC3OC(C)=O` (stereo not given), the TGI in the test on HL-60(TB) leukemia was more than 19.7 µM; with MALME-3M melanoma, 36.5 µM; in the test with CAKI-1 renal, 7.18 µM; in the test on LOX IMVI melanoma, more than 68.8 µM; in the test with KM12 colon it was 41 µM; in the test on HCC-2998 colon, 16.5 µM. Further, the TGI in the test with K-562 leukemia was more than 100 µM; in the test with SK-MEL-5 melanoma, 23.8 µM; with SK-MEL-2 melanoma, 49.7 µM; in the test on NCI-H23 lung, 18.6 µM.

Regarding `O/C(=C\c1nc2ccccc2nc1NC12CC3CC(CC(C3)C1)C2)c1ccc(Br)cc1`, the TGI with HL-60(TB) leukemia, in the test on MALME-3M melanoma, in the test with CAKI-1 renal, with LOX IMVI melanoma, in the test on KM12 colon and with HCC-2998 colon was more than 10 µM each time. For the same compound, the TGI in the test with K-562 leukemia, in the test with SK-MEL-5 melanoma, in the test with SK-MEL-2 melanoma and with NCI-H23 lung was more than 10 µM in each case.

As to `COc1cc(CC(C)N)ccc1O` (stereo not given), the TGI with HL-60(TB) leukemia, in the test on MALME-3M melanoma, with CAKI-1 renal, in the test with LOX IMVI melanoma, in the test with KM12 colon and in the test with HCC-2998 colon was more than 100 µM in each case. Besides, the TGI in the test on K-562 leukemia, with SK-MEL-5 melanoma, with SK-MEL-2 melanoma and with NCI-H23 lung was more than 100 µM throughout.

For `O=C(O)c1c2c(cc3c1CC1(Cc4ccccc4C1=O)C3)CCC2` (stereo not given), the TGI is 14.9 µM with HL-60(TB) leukemia; 76.6 µM with MALME-3M melanoma; more than 100 µM with CAKI-1 renal; more than 89.1 µM with LOX IMVI melanoma; more than 100 µM in the test with KM12 colon; 13.4 µM with HCC-2998 colon. Further, the TGI was 33.6 µM in the test with K-562 leukemia, more than 65 µM in the test on SK-MEL-5 melanoma, 55.1 µM in the test with SK-MEL-2 melanoma and more than 100 µM in the test with NCI-H23 lung.

`CCOC(=O)C1CN(C2CC2)CCC1=O` (stereo not given): the TGI in the test with HL-60(TB) leukemia, in the test on MALME-3M melanoma, with CAKI-1 renal, in the test with LOX IMVI melanoma, in the test with KM12 colon and in the test on HCC-2998 colon was more than 100 µM throughout. The TGI in the test on K-562 leukemia, in the test on SK-MEL-5 melanoma, in the test with SK-MEL-2 melanoma and in the test with NCI-H23 lung was more than 100 µM each time.
